Here are results for five compounds from PMC8119466, “A screen of FDA-approved drugs identifies inhibitors of protein tyrosine phosphatase 4A3 (PTP4A3 or PRL-3)” (Scientific Reports, 2021).

In data set [1] the test system is HEK293T cells. Description: MTT viability assay. The note with it: drug doses 1 to 100 µM, 16 h, normalized to 1% DMSO. It counts as cell-based, human.
Description: Cells were seeded into duplicate wells of a 96 well plate at a density of 2 × 10^4 cells per well and allowed to recover for 24 h. Cells were then treated with drug or DMSO at the indicated concentrations for 16 h. Following drug treatment, 10 μL of 5 mg/ml MTT (Sigma, M5655) was added to each well and cells were incubated for 4 h. Finally, media were removed, and the dye was solubilized in 100 μL of 0.1 M HCl in isopropanol. Absorbance was measured at 570 nm and 690 nm with final absorbance measurements as 570–690 nm.
Another data set addresses T1, recombinant PRL-1 (Homo sapiens, UniProt Q93096).
T1 construct: 6xHis (N, cleaved yes); made in house; host or cells: E. coli One Shot BL21 Star
T1 sequence (Q93096 1-173): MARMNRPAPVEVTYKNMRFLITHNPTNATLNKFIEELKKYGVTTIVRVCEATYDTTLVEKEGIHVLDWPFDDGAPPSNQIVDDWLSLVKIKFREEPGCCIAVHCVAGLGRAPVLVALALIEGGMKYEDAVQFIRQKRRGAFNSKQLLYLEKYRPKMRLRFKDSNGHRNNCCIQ
In words: In vitro phosphatase assay (DiFMUP hydrolysis), PRL-1. It counts as biochemical. The following applies: for IC50: DiFMUP at KM, read-out: Calculated IC50, PRL-1 phosphatase activity; for % Phosphatase Activity (compared to DMSO) PRL-1: FDA-approved drug screen.

Another data set addresses T2, recombinant PRL-3 (Homo sapiens, UniProt O75365).
T2 construct: 6xHis (N, cleaved yes); made in house; host or cells: E. coli One Shot BL21 Star
Description: In vitro phosphatase assay (DiFMUP hydrolysis), PRL-3. The note with it: for IC50: DiFMUP at KM, read-out: Calculated IC50, PRL-3 phosphatase activity; for % Phosphatase Activity (compared to DMSO) PRL-3: FDA-approved drug screen. Type of data set: biochemical.

Another data set concerns the target T3, recombinant PRL-2 (Homo sapiens, UniProt Q12974).
T3 construct: 6xHis (N, cleaved yes); made in house; host or cells: E. coli One Shot BL21 Star
T3 sequence (Q12974 1-167): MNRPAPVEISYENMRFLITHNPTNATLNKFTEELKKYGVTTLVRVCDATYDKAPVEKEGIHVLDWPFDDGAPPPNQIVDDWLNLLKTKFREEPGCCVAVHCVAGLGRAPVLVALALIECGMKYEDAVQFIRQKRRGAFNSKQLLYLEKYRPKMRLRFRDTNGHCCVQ
Description: In vitro phosphatase assay (DiFMUP hydrolysis), PRL-2.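 On all read-outs here: PRL-2 activity read as DiFMUP hydrolysis after 20 min at room temperature with drug, enzyme first pre-reduced at 4 °C for 20 min.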 Type of data set: biochemical. The following applies: for IC50: DiFMUP at KM, read-out: Calculated IC50, PRL-2 phosphatase activity; for % Phosphatase Activity (compared to DMSO) PRL-2: FDA-approved drug screen.

Data set [2] concerns HEK293T cells. In words: Scratch (migration) assay, HEK293T transfected with PRL-3 or empty vector. Type of data set: cell-based, human. The following applies: HEK293T transfected with PRL-3, 24 h, compared to DMSO. As to the method:
pENTR-PRL-3 (previously described[51]) was cloned into pLKO-CMV-puro using LR clonase (Thermofisher, 11,791,019) according to manufacturer’s directions. pLKO-CMV empty vector (EV) and pLKO-CMV:PRL-3 were transfected into HEK293T using Lipofectamine 3000 (ThermoFisher, L3000015) according to manufacturer’s protocol. Transfected cells were selected with 1 µg/mL puromycin in complete media to establish the cell line, then were maintained under 0.5 µg/mL puromycin in complete media. For PRL-3 knockdown, pLKO.1-scrambled shRNA and pLKO.1-PRL-3 shRNA[51] plasmids were transfected into HCT116 cells using Lipofectamine 3000 (Thermo Fisher, Cat # L3000015) according to the manufacturer’s directions. Cells were selected for 48 h in 1 µg/mL puromycin before use in assays.
Cells were seeded into duplicate wells of a 48 well plates at a density of 2 × 10^5 cells per well for HEK293T or 4 × 10^5 for HCT116 and SW480. Cells were recovered overnight and were scratched using a p20 pipette tip the following day. Compounds were added at the concentrations indicated. Images were obtained immediately after the scratch and after a 24 h incubation with the drug on an Evos FL inverted microscope (ThermoFisher). The area within the scratch was calculated using ImageJ. The area migrated was measured as the difference in wound area at 0 h and 24 h and the percent change in migration was calculated by dividing the difference in wound area of treatment by the difference in wound area of the control.

Where two headings read alike, the source gives them in different places.

T2 sequence (O75365 whole entry): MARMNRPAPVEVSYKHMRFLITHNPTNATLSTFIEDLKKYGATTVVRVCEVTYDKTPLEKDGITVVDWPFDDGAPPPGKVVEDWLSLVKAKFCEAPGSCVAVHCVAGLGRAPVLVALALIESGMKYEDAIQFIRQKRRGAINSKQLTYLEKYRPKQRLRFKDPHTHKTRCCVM

The IC50 is the point on the concentration scale where inhibition reaches its midpoint. As to `Cc1cc(C(C#N)c2ccc(Cl)cc2)c(Cl)cc1NC(=O)c1cc(I)cc(I)c1O` (centres unmarked) [Closantel, reference compound], the “viability (MTT)” value in the data set with HEK293T cells [1] was “increased MTT absorbance”. For the same compound, the concentration for half-maximal inhibition (IC50) on recombinant PRL-1 (2.5 µM protein) is 17000 ± 3000 nM; at recombinant PRL-3 (2.5 µM protein), 11000 ± 500 nM; on recombinant PRL-2 (2.5 µM protein), 14000 ± 5000 nM. The “% Phosphatase Activity (compared to DMSO) PRL-1” value on recombinant PRL-1 (compared to DMSO) is listed as 16%. On recombinant PRL-3 (compared to DMSO), the “% Phosphatase Activity (compared to DMSO) PRL-3” value is 40%. Moreover, the “% Phosphatase Activity (compared to DMSO) PRL-2” value on recombinant PRL-2 (compared to DMSO) is given as 17%.

As to `COc1cc(C(=O)O)ccc1NC(=O)[C@@H]1N[C@@H](CC(C)(C)C)[C@](C#N)(c2ccc(Cl)cc2F)[C@H]1c1cccc(Cl)c1F` [Idasanutlin, reference compound], in the data set with HEK293T cells [2], the “cellular migration in PRL-3 overexpressing cells” value (“cellular migration” for short) is “less significant effects on the migration of PRL-3 expressing cells”. In addition, the “viability (MTT)” value with HEK293T cells [1] is listed as “decreased viability”. Moreover, the IC50 was 20000 ± 3000 nM on recombinant PRL-1 (2.5 µM protein), 13000 ± 400 nM on recombinant PRL-3 (2.5 µM protein) and 16000 ± 2000 nM at recombinant PRL-2 (2.5 µM protein).

As to `CC(=O)c1cc2c(o1)C(=O)c1ccccc1C2=O` [Napabucasin, reference compound], the “cellular migration” value with HEK293T cells [2] is listed as “less significant effects on the migration of PRL-3 expressing cells”. Moreover, the “viability (MTT)” value in the data set with HEK293T cells [1] is listed as “decreased viability”. Also, the concentration for half-maximal inhibition (IC50) on recombinant PRL-1 (2.5 µM protein) is 400 ± 200 nM; at recombinant PRL-3 (2.5 µM protein), 700 ± 100 nM; at recombinant PRL-2 (2.5 µM protein), 1100 ± 300 nM. Besides, the “% Phosphatase Activity (compared to DMSO) PRL-1” value at recombinant PRL-1 (compared to DMSO) was 16%. For the same compound, the “% Phosphatase Activity (compared to DMSO) PRL-3” value at recombinant PRL-3 (compared to DMSO) is 10%. Besides, the “% Phosphatase Activity (compared to DMSO) PRL-2” value at recombinant PRL-2 (compared to DMSO) was 26%.

`COCCn1c2c([n+](Cc3cnccn3)c1C)C(=O)c1ccccc1C2=O` [YM155, reference compound]: in the data set with HEK293T cells [2], the “cellular migration” value is reported as “less significant effects on the migration of PRL-3 expressing cells”. Besides, the “viability (MTT)” value in the data set with HEK293T cells [1] is recorded as “decreased viability”. The results for the 50% inhibitory concentration (IC50) on recombinant PRL-1 (2.5 µM protein), at recombinant PRL-3 (2.5 µM protein) and at recombinant PRL-2 (2.5 µM protein) were 300 ± 100 nM, 300 ± 100 nM and 700 ± 100 nM, respectively.

Regarding Vitamin B12 [reference compound], the “viability (MTT)” value with HEK293T cells [1] is given as “no effect on the viability”. The “% Phosphatase Activity (compared to DMSO) PRL-1” value at recombinant PRL-1 (activity compared to DMSO) came out at 2.68%. In addition, the IC50 is 700 ± 200 nM at recombinant PRL-1 ([…] protein), 900 ± 100 nM at recombinant PRL-3 ([…] protein) and 900 ± 200 nM at recombinant PRL-2 ([…] protein). For the same compound, the “% Phosphatase Activity (compared to DMSO) PRL-3” value at recombinant PRL-3 (activity compared to DMSO) is reported as -2%. For the same compound, the “% Phosphatase Activity (compared to DMSO) PRL-2” value on recombinant PRL-2 (activity compared to DMSO) is reported as -16%.
